This is an account of results in patent US5795891A, “Acylphenylglycine derivative and preventive and remedy for diseases caused by increased collagenase activity containing said compound as active ingredient” (Kanebo Ltd., priority 1993, dated 1998).

Structures can show the parent of a compound that is named as a salt.

For assay [1], the system named is collagenase. Nature of the assay: Collagenase activity inhibition rate in blood after oral administration (in mice). It is filed as in vivo. The conditions noted are these: 30 mg/kg p.o.; for Collagenase Inhibition rates in blood after oral administration, After 2 hours: after 2 hours (as printed in head; text says 3 hours). As for the experimental part: (§1) Test compounds were suspended in 0.5% CMC and orally administered to three mice per group (the dose of the test compound, 30 mg/kg), and after a certain period of time, the blood was collected in the presence of heparin and ice-cooled. Plasma was obtained by centrifugation of this blood at 10,000 rpm for 5 minutes at 4° C. To 400 μl of this plasma was added to 600 μl of distilled water, and heated at 100° C. for 10 minutes. After cooling, the mixture was centrifuged at 10,000 rpm for 5 minutes and filtered using a micro-volume ultrafiltration unit (Molcut II, Millipore) to provide a sample (A) for use in collagenase activity measurement. Using this sample, collagenase activity inhibition rate in blood was determined by the following method.
(§2) The sample (A) above was mixed with a known amount of collagenase (the collagenase used was prepared by the method described in JP-A-3-103178) dissolved in a buffer for measurement (50 mM Tris-HCl buffer, pH 7.5, containing 0.2M sodium chloride, 5 mM calcium chloride, 0.05% Brij-35 and 0.02% sodium azide,), and collagenase activity A was measured according to the method of Nagai et al. (Japanese Journal of Inflammation, 4, 123 (1984)) using a fluorescein isothiocyanate-labeled type-I collagen as a substrate. […] Inhibition rate was determined from the following equation:
(§3) Inhibition rate (%)=(1-A/B)×100

Assay [2] has as its system collagenase. Nature of the assay: Collagenase activity inhibition rate in blood after oral administration (in rats). Format: in vivo. The conditions noted are these: 100 mg/kg p.o. As for the experimental part: as §1, §2, §3
The same procedure as Test Example 1 was followed except that mice were replaced with rats (3 rats/group) and the dose of the tested compounds selected to be 100 mg/kg.

On to `CNC(=O)C(NC(=O)C(CC(=O)NO)CC(C)C)c1ccccc1` [Compound A, [4-(N-hydroxyamino)-2(R)-isobutylsuccinyl]-L-phenylglycine-N-methylamide], for which, in the assay with collagenase [1], the “Collagenase Inhibition rates in blood after oral administration, After 1 hour” value (shortened to “Collagenase Inhibition rates … After 1 hour”) is recorded as 88% and the “Collagenase Inhibition rates in blood after oral administration, After 2 hours” value (shortened to “Collagenase Inhibition rates … After 2 hours”) is 83%. In the assay on collagenase [2], the “Collagenase Inhibition rates in blood after oral administration, After 1 hr.” value is 100%; the “Collagenase Inhibition rates in blood after oral administration, After 3 hrs.” value is given as 91%; the “Collagenase Inhibition rates in blood after oral administration, After 6 hrs.” value was 64%.

For the molecule `CNC(=O)C(NC(=O)C(CC(=O)NO)CC(C)C)c1ccc(F)cc1` [Compound G, [4-(N-hydroxyamino)-2(R)-isobutylsuccinyl]-L-(p-fluorophenyl)glycine-N-methylamide], in the assay with collagenase [1], the “Collagenase Inhibition rates … After 1 hour” value stood at 83% and the “Collagenase Inhibition rates … After 2 hours” value came to 64%.

As for `CNC(=O)[C@H](Cc1c[nH]c2ccccc12)NC(=O)[C@@H](CC(=O)NO)CC(C)C` [Known compound Z, [4-(N-hydroxyamino)-2(R)-isobutylsuccinyl]-L-tryptophan-N-methylamide, reference compound], in the assay with collagenase [1], the “Collagenase Inhibition rates … After 1 hour” value is given as 58% and the “Collagenase Inhibition rates … After 2 hours” value stood at 51%.

For the molecule `CCNC(=O)C(NC(=O)C(CC(=O)NO)CC(C)C)c1ccccc1` [Compound F, [4-(N-hydroxyamino)-2(R)-isobutylsuccinyl]-L-phenylglycine-N-ethylamide], in the assay on collagenase [1], the “Collagenase Inhibition rates … After 1 hour” value amounted to 89% and the “Collagenase Inhibition rates … After 2 hours” value was determined as 53%.

For the molecule `CNC(=O)C(NC(=O)C(CC(C)C)C(CN1CCOCC1)C(=O)NO)c1ccccc1` [Compound C, [4-(N-hydroxyamino)-2(R)-isobutyl-3-(morpholinomethyl)succinyl]-L-phenylglycine-N-methylamide hydrochloride], in the assay on collagenase [1], the “Collagenase Inhibition rates … After 1 hour” value came to 75% and the “Collagenase Inhibition rates … After 2 hours” value is listed as 64%.

With `CNC(=O)C(NC(=O)C(CC(=O)NO)CC(C)C)c1ccc(O)cc1` [Compound B, [4-(N-hydroxyamino)-2(R)-isobutylsuccinyl]-L-(p-hydroxyphenyl)glycine-N-methylamide], in the assay on collagenase [1], the “Collagenase Inhibition rates … After 1 hour” value stood at 84% and the “Collagenase Inhibition rates … After 2 hours” value was 62%.

As to `CNC(=O)C(NC(=O)C(CC(=O)NO)CC(C)C)c1ccc(C(C)C)cc1` [Compound H, [4-(N-hydroxyamino)-2(R)-isobutylsuccinyl]-L-(p-isopropylphenyl)glycine-N-methylamide], in the assay with collagenase [1], the “Collagenase Inhibition rates … After 1 hour” value is on record as 74% and the “Collagenase Inhibition rates … After 2 hours” value is listed as 63%.

Take `CNC(=O)[C@H](Cc1ccc(OC)cc1)NC(=O)[C@@H](CC(=O)NO)CC(C)C` [Known compound X, [4-(N-hydroxyamino)-2(R)-isobutylsuccinyl]-L-O-methyltyrosine-N-methylamide, reference compound]: in the assay on collagenase [1], the “Collagenase Inhibition rates … After 1 hour” value was determined as 60% and the “Collagenase Inhibition rates … After 2 hours” value is 43%. In the assay with collagenase [2], the “Collagenase Inhibition rates in blood after oral administration, After 1 hr.” value worked out at 45%; the “Collagenase Inhibition rates in blood after oral administration, After 3 hrs.” value is on record as 44%; the “Collagenase Inhibition rates in blood after oral administration, After 6 hrs.” value was 33%.

For `CNCC(C(=O)NO)C(CC(C)C)C(=O)NC(C(=O)NC)c1ccccc1` [Compound E, [4-(N-hydroxyamino)-2(R)-isobutyl-3-(methylaminomethyl)succinyl]-L-phenylglycine-N-methylamide], in the assay on collagenase [1], the “Collagenase Inhibition rates … After 1 hour” value came out at 82% and the “Collagenase Inhibition rates … After 2 hours” value was determined as 61%.
